Data set [1] can be described thus: pH 8.0 buffer stability. The format is physicochemical. The note with it: 150 mM NaH2PO4 buffer pH 8.0, 60 min, 37° C. How it is done:
For the pH 8.0 stability studies, 190 μL of 150 mM NaH2PO4 buffer pH 8.0 was added to each sample tube. Ten (10) μL of 20 mM test compound was added to each tube and mixed. The samples were incubated for 60 min at 37° C. Following incubation, the samples were transferred to room temperature and 800 μL of 50% ACN in water was added to each tube. Samples were analyzed using LC/MS/MS to determine the concentrations of prodrug and parent drug.
(§1) LC-MS/MS analysis for MHF was performed using an API 4000 equipped with an Agilent 1100 HPLC and a Leap Technologies autosampler. A HPLC Phenomenex Onyx Monolithic C18 (CHO-7644) column at a temperature of 35° C., flow rate of 2.0 mL/min, injection volume of 30 μL, and a 3 min run time was used. Mobile phase AI was 0.1% formic acid in water and Mobile phase AII was 0.1% formic acid in acetonitrile. The gradient was 98% AI/2% AII at time 0; 98% AI/2% AII at time 0.1 mM; 5% AI/95% AII at time 1.4 mM; 5% AI/95% AII at time 2.2 min; 98% AI/2% AII at time 2.3 mM; and 98% AI/2% AII at time 3.0 min MHF content was determined using negative ion mode (Q1 128.94; Q2 71).

The nature of data set [2]: Enzymatic stability of prodrug in rat plasma. Format: in vitro ADME. As to conditions: 37° C.; for half-life at 40 µM: read-out: T1/2 Parent Prodrug Cleavage (min) rPlasma. How it is done: Rat plasma (Pel-Freez® Biologicals, Rogers, Ark.; 36150) was used as obtained from the supplier.
(§2) The enzymatic stability assays for prodrug in CaCo2 S9, rat liver S9, rat plasma, pig pancreatin, and rat colonic was were performed using the following procedure. Ninety (90) μL of lysate is aliquoted to designated tubes on a cluster plates. The lysate was preincubated for 10 min at 37° C. With the exception of the t(0) time point, 10 μL of a 400 μM solution of test compound in 0.1M Tris buffer, pH 7.4 was added to multiple wells representing different incubation times. The samples were incubated at 37° C. At each time point, the reaction was quenched by adding 300 μL of 100% ethanol. The samples were thoroughly mixed, the tubes transferred to a V-bottom plate, and stored at −20° C. For the t(0) time point, the lysate was quenched with 300 μL of ice cold 100% ethanol, thoroughly mixed, 10 μL of 400 μM test compound was added and mixed, and the sample tube transferred to a V-bottom plate and stored at −20° C. For analysis, 180 μL from each sample was transferred to a 96 well V-bottom plate and sealed. After all time points were collected, the plate was centrifuged for 10 min at 5600 rpm at 4° C. One-hundred fifty (150) μL from each well was then transferred to a 96 well round bottom plate. Samples were analyzed using LC/MS/MS to determine the concentrations of prodrug and parent drug.
as §1

A short description of data set [3]: Enzymatic stability of prodrug in rat colonic wash. The note with it: rat colonic wash undiluted, 37° C.; for half-life at 40 µM: pH 7.4, read-out: T1/2 Parent Prodrug Cleavage (min) rColonic Wash. Format: in vitro ADME. How it is done:
To prepare the rat colonic wash, the colon between the ceacum and rectum was resected from a euthanized rat. Five to 10 mL of PBS pH 7.4 buffer (depending on the weight of the rat) was flushed into the lumen of the large intestine and collected into a 250 mL glass beaker at 0° C. (ice bath). The colonic wash was transferred into 10 mL conical tubes using a 10 mL syringe fitted with a filter. Samples of 0.5 mL colonic wash are stored at −80° C. until the time of use. Colonic was used without dilution.
as §2, §1

The nature of data set [4]: Enzymatic stability of prodrug in rat liver S9. Format: in vitro ADME. As to conditions: rat liver S9 0.5 mg/mL, pH 7.4, 1 mM NADPH, 37° C.; for half-life at 40 µM: read-out: T1/2 Parent Prodrug Cleavage (min) rLiver. How it is done: Rat liver S9 (XenoTech, Lenexa, Kans.; R1000.59, 20 mg/mL) was diluted to 0.5 mg mL in 0.1 M potassium phosphate buffer at pH 7.4 and 1 mM NADPH cofactor.
as §2, §1

Data set [5] is described as follows: Enzymatic stability of prodrug in porcine pancreatin. The format is in vitro ADME. As to conditions: porcine pancreatin 10 mg/mL, 0.1M Tris pH 7.4, 37° C.; for half-life at 40 µM: pig, read-out: T1/2 Parent Prodrug Cleavage (min) pPancreatin. How it is done: Porcine pancreatin (Sigma Aldrich, St. Louis, Mo.; P1625-100G) was diled to 10 mg/mL in 0.1M Tris buffer, pH 7.4.
as §2, §1

The nature of data set [6]: Enzymatic stability of prodrug in CaCo2 S9 homogenate. Format: in vitro ADME. The note with it: CaCo2 S9 0.5 mg/mL, 0.1M Tris pH 7.4, 37° C.; for half-life at 40 µM: human, Caco-2 cell S9 homogenate, read-out: T1/2 Parent Prodrug Cleavage (min) CaCo2. How it is done: CaCo2 S9 homogenate was prepared using the following procedure. CaCo2 cells were grown in culture for 21 days prior to harvesting. Culture medium was removed from the culture vessel and the monolayer was rinsed twice with 10-15 mL chilled PBS buffer. PBS buffer (7-10 mL) was added to the flask and the cells scraped from the growth surface and transferred to a centrifuge tube. The cells were pelleted by centrifugation at 1500 rpm for 5 min at 4° C. The supernatant was removed and the cell pellet washed with ice cooled PBS and repelleted by centrifugation. The supernatant was removed and the pellet resuspended in cell lysis buffer (0.15M KCl and 10 mM sodium phosphate buffer, pH 7.4). Cells were lysed by sonication at 4° C. using a probe sonicator. The lysed cells were then transferred to vials and centrifuged at 1600 rpm for 10 min at 4° C. to remove intact cells, nuclei, and large cellular debris. The supernatant was removed and transferred to a tube for centrifugation at 8600 rpm for 20 min at 4° C. After centrifugation, the resulting supernatant representing the CaCo2 cell homogenate S9 fraction was carefully removed and aliquoted into vials for storage at −80° C. until the time of use. At the time of use, CaCo2 S9 lysate was diluted to 0.5 mg/mL in 0.1M Tris buffer, pH 7.4.
as §2, §1

For the molecule `COC(=O)/C=C/C(=O)OCC(=O)NCc1ccccc1` [Compound 2, Methyl [N-benzylcarbamoyl]methyl (2E)but-2-ene-1,4-dioate], the “pH 8.0: Percent DMF or prodrug remaining after 60 minutes” value in data set [1] was 17%. For the same molecule, the half-life at 40 µM in data set [2] came out at 9 min; in data set [3] it was 25 min; in data set [4], 9 min; in data set [5], 1 min; in data set [6], 4 min.

Take `CCCCNC(=O)COC(=O)/C=C/C(=O)OC` [Compound 4, (N-Butylcarbamoyl)methyl methyl (2E)but-2-ene-1,4-dioate]: the “pH 8.0: Percent DMF or prodrug remaining after 60 minutes” value in data set [1] is reported as 40%. Also, the half-life at 40 µM in data set [2] is 1 min; in data set [3], 33 min; in data set [4] it was 2 min; in data set [5], 2 min; in data set [6] it was 5 min.

Take “Methyl(N-(1,3,4-thiadiazol-2-yl)carbamoyl)methyl(2E)but-2ene-1,4-dioate [Compound 8]”: the “pH 8.0: Percent DMF or prodrug remaining after 60 minutes” value in data set [1] is 141%. For the same molecule, the “T1/2 Parent Prodrug Cleavage (min) rPlasma” value in data set [2] is recorded as 6 min. In data set [3], the “T1/2 Parent Prodrug Cleavage (min) rColonic Wash” value was found to be 27 min. The “T1/2 Parent Prodrug Cleavage (min) rLiver” value in data set [4] is on record as 23 min. Besides, in data set [5], the “T1/2 Parent Prodrug Cleavage (min) pPancreatin” value was 15 min. The “T1/2 Parent Prodrug Cleavage (min) CaCo2” value in data set [6] came to 52 min.

Broadly, the melting point is the temperature of the solid-liquid transition. Molecule `COCCN(CCOC)C(=O)COC(=O)/C=C/C(=O)OC` [Compound 11] gave a melting point of 79 to 82 °C.

As to `COC(=O)/C=C/C(=O)OC(C)C(=O)N1CCOCC1` (stereo not shown) [Compound 28, Methyl 1-methyl-2-morpholin-4-yl-2-oxoethyl (2E)but-2-ene-1,4-dioate], the melting point fell in the range of 70 to 73 °C.

With `COCCNC(=O)COC(=O)/C=C/C(=O)OC` [Compound 5, [N-(2-Methoxyethyl)carbamoyl]methyl methyl (2E)but-2-ene-1,4-dioate], the “pH 8.0: Percent DMF or prodrug remaining after 60 minutes” value in data set [1] came to 53%. The half-life at 40 µM in data set [2] is 2 min; in data set [3], more than 60 min; in data set [4], 10 min; in data set [5], 3 min; in data set [6] it was 30 min.

Regarding `COC(=O)/C=C/C(=O)OCC(=O)N(C)C` [Compound 9], in data set [1], the “pH 8.0: Percent DMF or prodrug remaining after 60 minutes” value was 47%. Further, the half-life at 40 µM in data set [2] is 1 min; in data set [3], more than 60 min; in data set [4], 6 min; in data set [5] it was 4 min; in data set [6] it was 8 min.

As to `CCN(CC)C(=O)COC(=O)/C=C/C(=O)OC` [Compound 1, (N,N-Diethylcarbamoyl)methyl methyl (2E)but-2-ene-1,4-dioate], the “pH 8.0: Percent DMF or prodrug remaining after 60 minutes” value in data set [1] was determined as 63%. The half-life at 40 µM in data set [2] is 1 min; in data set [3] it was more than 60 min; in data set [4] it was 2 min; in data set [5], 8 min; in data set [6] it was 8 min.

With `COC(=O)/C=C/C(=O)OCC(=O)N(C)OC` [Compound 10, (N-Methoxy-N-methylcarbamoyl)methyl methyl (2E) but-2-ene-1,4-dioate], the “pH 8.0: Percent DMF or prodrug remaining after 60 minutes” value in data set [1] is on record as 42%. In addition, the half-life at 40 µM is 1 min in data set [2]; more than 60 min in data set [3]; 1 min in data set [4]; 4 min in data set [5]; 3 min in data set [6].

The molecule `COC(=O)/C=C/C(=O)O[C@@H](C)C(=O)N1CCOCC1` [Compound 31, (1S)-1-Methyl-2-morpholin-4-yl-2-oxoethyl methyl (2E)but-2-ene-1,4-dioate] yielded a melting point of 79 to 82 °C.

In turn, `COC(=O)/C=C/C(=O)OCC(=O)N1CCOCC1` [Compound 3, Methyl 2-morpholin-4-yl-2-oxoethyl (2E)but-2-ene-1,4-dioate] came in with a melting point of 124 to 126 °C. Moreover, the “pH 8.0: Percent DMF or prodrug remaining after 60 minutes” value in data set [1] is recorded as 53%. In addition, the half-life at 40 µM in data set [2] came to 1 min. Also, the half-life at 40 µM in data set [3] is more than 60 min. For the same molecule, the half-life at 40 µM in data set [4] was 22 min. The half-life at 40 µM in data set [5] was found to be 8 min. Besides, the half-life at 40 µM in data set [6] turned out to be 56 min.

The values are drawn from US8785443B2, “Methods of using prodrugs of methyl hydrogen fumarate and pharmaceutical compositions thereof” (XenoPort, Inc., priority 2008, dated 2014).
